In ChEMBL document CHEMBL6078668, “Synthesis and biological evaluation of lappaconitine analogues as potential anti-neuroinflammatory agents by side chain modification and scaffold hopping strategy” (Bioorg Med Chem, 2025):

Experiments:
[1] = Cytotoxicity against C57BL/6 mouse BV-2 cells assessed as survival rate at 30 uM incubated for 24 hrs by MTT assay relative to control; format: toxicity, cell-based; conditions: read-out: Survival
[2] = system: BV-2; experiment: Anti-neuroinflammatory activity against LPS-stimulated C57BL/6 mouse BV-2 cells assessed as inhibition of NO release at 30 uM preincubated with compound for 4 hrs followed by LPS addition and measured after 24 hrs by Griess reagent based assay relative to control; format: functional; conditions: C57BL/6, BV-2, time 28 hrs

Row | Compound | viability at 24 h, 30 µM [1] | inhibition at 30 µM [2]
1 | CCc1ccc(C(=O)Nc2ccccc2C(=O)OC)cc1 | 103% | 37.1%
2 | CCCc1ccc(S(=O)(=O)C(=O)Nc2ccccc2C(=O)O[C@@]23CC[C@H](OC)[C@]45C([C@@H](C[C@H]24)[C@@]2(O)C[C@H](OC)[C@H]4C[C@@H]5[C@]2(O)[C@H]4OC)N(CC)C3)cc1 | 92.3% | 43.4%
3 | CCN1C[C@]2(OC(=O)c3ccccc3NC(=O)c3ccc(C)cc3C)CC[C@H](OC)[C@]34C1[C@@H](C[C@H]23)[C@@]1(O)C[C@H](OC)[C@H]2C[C@@H]4[C@]1(O)[C@H]2OC | 104% | 16%
4 | CCN1C[C@]2(OC(=O)c3ccccc3NC(=O)S(=O)(=O)c3cc(F)ccc3F)CC[C@H](OC)[C@]34C1[C@@H](C[C@H]23)[C@@]1(O)C[C@H](OC)[C@H]2C[C@@H]4[C@]1(O)[C@H]2OC | 105% | 53.7%
5 | CCN1C[C@]2(OC(=O)c3ccccc3NC(=O)S(=O)(=O)c3ccc(F)c(Cl)c3)CC[C@H](OC)[C@]34C1[C@@H](C[C@H]23)[C@@]1(O)C[C@H](OC)[C@H]2C[C@@H]4[C@]1(O)[C@H]2OC | 93.6% | 26.2%
6 | CCC(=O)Nc1ccccc1C(=O)O[C@@]12CC[C@H](OC)[C@]34C([C@@H](C[C@H]13)[C@@]1(O)C[C@H](OC)[C@H]3C[C@@H]4[C@]1(O)[C@H]3OC)N(CC)C2 | 96.1% | 19.1%
7 | CCN1C[C@]2(COC(=O)c3ccccc3NS(=O)(=O)c3ccc(Br)s3)CC[C@H](OC)[C@]34C1[C@@H](C[C@H]23)[C@@]1(O)C[C@H](OC)[C@H]2C[C@@H]4[C@]1(O)[C@H]2O | 104% | 26.2%
8 | CCN1C[C@]2(OC(=O)c3ccccc3NC(=O)S(=O)(=O)c3ccc(F)cc3F)CC[C@H](OC)[C@]34C1[C@@H](C[C@H]23)[C@@]1(O)C[C@H](OC)[C@H]2C[C@@H]4[C@]1(O)[C@H]2OC | 103% | 47.5%
9 | CCN1C[C@]2(OC(=O)c3ccccc3NC(=O)S(=O)(=O)c3cc(F)c(F)cc3F)CC[C@H](OC)[C@]34C1[C@@H](C[C@H]23)[C@@]1(O)C[C@H](OC)[C@H]2C[C@@H]4[C@]1(O)[C@H]2OC | 108% | 10.5%
10 | CCN1C[C@]2(OC(=O)c3ccccc3NC(=O)C3CCOC3)CC[C@H](OC)[C@]34C1[C@@H](C[C@H]23)[C@@]1(O)C[C@H](OC)[C@H]2C[C@@H]4[C@]1(O)[C@H]2OC (stereo partly drawn) | 109% | 32.4%
11 | CCN1C[C@]2(OC(=O)c3ccccc3NC(=O)C3CCCO3)CC[C@H](OC)[C@]34C1[C@@H](C[C@H]23)[C@@]1(O)C[C@H](OC)[C@H]2C[C@@H]4[C@]1(O)[C@H]2OC (stereo partly drawn) | 108% | 14.5%
12 | CCc1ccc(C(=O)Nc2ccccc2C(=O)O)cc1 | 101% | 11.9%
13 | CCN1C[C@]2(OC(=O)c3ccccc3NC(=O)c3ccc(F)cc3)CC[C@H](OC)[C@]34C1[C@@H](C[C@H]23)[C@@]1(O)C[C@H](OC)[C@H]2C[C@@H]4[C@]1(O)[C@H]2OC | 104% | 22.3%
14 | CCN1C[C@]2(OC(=O)c3ccccc3NC(=O)S(=O)(=O)c3ccccc3Br)CC[C@H](OC)[C@]34C1[C@@H](C[C@H]23)[C@@]1(O)C[C@H](OC)[C@H]2C[C@@H]4[C@]1(O)[C@H]2OC | 92.6% | 7.3%
15 | CCN1C[C@]2(OC(=O)c3ccccc3NC(=O)c3ccccc3I)CC[C@H](OC)[C@]34C1[C@@H](C[C@H]23)[C@@]1(O)C[C@H](OC)[C@H]2C[C@@H]4[C@]1(O)[C@H]2OC | 109% | 13.1%
16 | CCN1C[C@]2(OC(=O)c3ccccc3NC(=O)C3CC3)CC[C@H](OC)[C@]34C1[C@@H](C[C@H]23)[C@@]1(O)C[C@H](OC)[C@H]2C[C@@H]4[C@]1(O)[C@H]2OC | 104% | 27.7%
17 | CCN1C[C@]2(OC(=O)c3ccccc3NC(=O)S(=O)(=O)c3ccc(C(=O)OC)cc3)CC[C@H](OC)[C@]34C1[C@@H](C[C@H]23)[C@@]1(O)C[C@H](OC)[C@H]2C[C@@H]4[C@]1(O)[C@H]2OC | 104% | 15.7%
18 | CCN1C[C@]2(OC(=O)c3ccccc3NC(=O)S(=O)(=O)c3ccc(OC)c(OC)c3)CC[C@H](OC)[C@]34C1[C@@H](C[C@H]23)[C@@]1(O)C[C@H](OC)[C@H]2C[C@@H]4[C@]1(O)[C@H]2OC | 105% | 19.4%
19 | CCCC(C)C(=O)Nc1ccccc1C(=O)O[C@@]12CC[C@H](OC)[C@]34C([C@@H](C[C@H]13)[C@@]1(O)C[C@H](OC)[C@H]3C[C@@H]4[C@]1(O)[C@H]3OC)N(CC)C2 (stereo partly drawn) | 108% | 57.8%
